Assay results taken from patent US6211209A, “Method of inhibiting connective tissue degradation” (Warner-Lambert Company, priority 1998, dated 2001).

Test system: 92 kDa gelatinase
Assay: Gelatin zymography of bovine nasal cartilage conditioned media: expression of 92 kDa gelatinase
Format: cell-based
Settings: various concentrations, IL-1β-induced, FIG. 1
Protocol: (§1) To evaluate the effects of the compounds of the present invention on the expression of 72 kDa and 92 kDa gelatinases, samples obtained from the bovine nasal cartilage study (described above) were subjected to gelatin zymography.
(§2) Separating gels (8%) were made by combining 400 μL gelatin (25 mg/mL) with: 2.5 mL Tris (1.5 M); 100 μL SDS (10%); 2.6 mL acrylamide (30%); 10 μL TEMED; 4.6 mL dH2 O; 100 μL ammonium persulfate (10%). Stacking gels (4.5%) were formed by combining: 2.5 mL Tris (0.5 M); 100 μL SDS (10%); 1.5 mL acrylamide (30%); 10 μL TEMED; 5.8 mL dH2 O; 100 μL ammonium persulfate (10%).
(§3) Bovine nasal cartilage conditioned media was diluted (1:15) using sample buffer 1X (2% SDS, 15% glycerol, 0.01% bromophenol blue, 0.25M Trizma Base, pH 6.8). Thirty microliters of each of the diluted samples and molecular weight standards were subjected to electrophoresis at 4° C. under constant current conditions (20 mA of current/gel) using Tris/Glycine running buffer (0.5 M Trizma Base, pH 8.8 using glycine, 1% SDS) that was diluted 1:20 before use.
After completion of the electrophoretic procedure, the gel was first washed twice for 15 minutes in 2.5% Triton X-100. The gel was then rinsed with the gel incubation buffer (0.05 M Tris, pH 8.2, 0.005 M CaCl2, 0.5 μM ZnCl2) and incubated overnight in this buffer at 37° C. After the incubation period, the gel was stained for 30 minutes in 0.125% Coomassie and destained using 10% methanol/5% acetic acid destaining solution.

**Q.** With `Cc1ccc(Cl)c(Nc2ccccc2C=C2SC(=S)NC2=O)c1Cl` [Compound 11, 5-[2-(2,6-Dichloro-3-methyl-phenylamino)-benzylidene]-2-thioxo-thiazolidin-4-one] as the compound, how does the “inhibiting expression of IL-1β-induced 92 kDa gelatinase” value read?
**A.** The value was “effective in inhibiting expression of IL-1β-induced 92 kDa gelatinase in a dose-dependent manner”.

Same assay, conditions: versus 72 kDa gelatinase

**Q.** `Cc1ccc(Cl)c(Nc2ccccc2C=C2SC(=S)NC2=O)c1Cl` [Compound 11, 5-[2-(2,6-Dichloro-3-methyl-phenylamino)-benzylidene]-2-thioxo-thiazolidin-4-one] was tested. Which “specificity of effects (92 kDa versus 72 kDa gelatinase)” value did it give?
**A.** The value was “specific to 92 kDa”.

Test system: 72 kDa gelatinase
Assay: Gelatin zymography of bovine nasal cartilage conditioned media: expression of 72 kDa gelatinase
Format: cell-based
Settings: various concentrations, FIG. 1
Protocol: as §1, §2, §3
After completion of the electrophoretic procedure, the gel was first washed twice for 15 minutes in 2.5% Triton X-100. The gel was then rinsed with the gel incubation buffer (0.05 M Tris, pH 8.2, 0.005 M CaCl2, 0.5 μM ZnCl2) and incubated overnight in this buffer at 37° C. […]

**Q.** How did the “effect on expression of 72 kDa gelatinase” value turn out when `Cc1ccc(Cl)c(Nc2ccccc2C=C2SC(=S)NC2=O)c1Cl` [Compound 11, 5-[2-(2,6-Dichloro-3-methyl-phenylamino)-benzylidene]-2-thioxo-thiazolidin-4-one] was run?
**A.** Its value is “no effect on expression of 72 kDa gelatinase”.

Test system: bovine nasal cartilage
Assay: Bovine nasal cartilage assay: inhibition of IL-1β-induced proteoglycan loss (chondroitin sulfate by 1,9 DMB)
Format: cell-based
Settings: Bos taurus; concentration preventing 50% of proteoglycan loss; IL-1β-stimulated cartilage plugs
Protocol: The BNC (bovine nasal cartilage) assay provides a model for evaluating chrondroprotective compounds that block cartilage degradation through inhibition of enzyme activity or by altering the gene expression of the matrix metalloproteinases such as stromelysin.
The assay is accomplished in two phases. The cartilage plugs are first incubated with IL-1β in the presence of the compounds of the present method. The amount of proteoglycan released is then quantified by measuring chondroitin sulfate present in the media using the 1,9-Dimethylmethylene Blue Assay (1,9 DMB).
Bovine nasal septum is dissected free of surrounding tissue and wiped with 70% alcohol. A sterile cork borer is used to remove 5-mm cartilage disks of 2- to 3-mm thickness. Explants are equilibrated for 96 hours in F-12 supplemented with 10% fetal calf serum (FCS) and antibiotics at 37° C. in a humidified atmosphere of 95% air and 5% CO2. Explants are then rinsed with 1 mL F-12 Nutrient Mixture (without phenol red) in order to remove traces of FCS. Each treatment group is done in triplicate allowing: controls (500 μL F-12 medium +110 μL PBS with 0.1% BSA +7 μL DMSO); IL-1β (500 μL F-12 medium without phenol red +100 μL IL-1β (500 U) +7 μL DMSO +10 μL PBS with 0.1% BSA); and dose responses (10, 1, and 0.1 μM) (F-12 medium without phenol red +100 μL IL-1β (500 U) +7 μL compound dissolved in DMSO +10 μL PBS with 0.1% BSA), to be tested per each 24-well plate. The cartilage plugs are incubated in the presence of conditioned media (IL-1β+compound) for 48 hours. Fresh unconditioned media (no IL-1β or compound) is added and incubated for an additional 24 hours. Both the conditioned and unconditioned media are collected and saved for analysis using the 1,9 DMB assay.
The ability of a compound to inhibit proteoglycan released from the cartilage plugs is quantified by measuring chondroitin sulfate. This is done using the calorimetric 1,9 DMB assay. Depending on the amount of chondroitin sulfate present in the media a color change will occur turning the normally deep blue dye, vivid pink. This color change is measured using a Titertek Multiscan MCC 340 plate reader at 540 nm. A Cetus Pro/Pette is used to speed dilution and pipetting steps. The Cetus uses Sarstedt vials, designed for radioimmune assays, which have been inserted into Sarstedt 96-vial aluminum racks. The first row of 12 slots is left empty in order to accommodate the chondroitin sulfate standards (0.01-0.32 μg/mL shark chondroitin sulfate in 0.1 M phosphate buffer, pH 7.0, containing 0.01 M L-cysteine HCl and 0.05 M EDTA). It is necessary to dilute (1:5, 1:10) the medium before a […] is performed by adding 10 μL of collected media to 290 μL DMF (16 mg dye/1 L of 0.1 M formate buffer, pH 3.5, containing 5 mL ethanol) and reading at […]. Dilutions are performed on both the 48-hour and 72-hour media samples collected and saved earlier. Once the experiment has been completed, in order to determine the total amount of proteoglycan remaining in the plugs, they are subjected to papain digestion. Cartilage explants are digested in 20-mL glass scintillation vials by adding 50 μL papain in 1.0 mL cysteine buffer (0.01 M phosphate buffer, pH 7.0 containing 0.01 M L-cysteine HCl and 0.05 M EDTA). Digested material is diluted (1:60) and chondroitin sulfate values determined using the 1,9 DMB assay.
Determination of chondroitin sulfate in each sample is accomplished by subtracting the constant value determined from the linear regression performed on the standard curve, from the O.D. value for a particular well, and then dividing by the X coefficient calculated from the linear regression done on the standard curve. Each experimental well is split into two samples for determining chondroitin sulfate values, then the two are averaged. […]

**Q.** Which IC50 does the source give for `O=c1[nH]nc(-c2ccccc2Nc2ccccc2)o1` [Compound 2, 5-(2-Phenylamino-phenyl)-3H-[1,3,4]oxadiazol-2-one] here?
**A.** The IC50 was 40.8 µM.

**Q.** With `Cc1cccc(Nc2ccccc2-c2n[nH]c(=S)o2)c1C` [Compound 3, 5-[2-(2,3-Dimethyl-phenylamino)-phenyl]-3H-[1,3,4]oxadiazole-2-thione] as the compound, how does the IC50 read?
**A.** The IC50 was 31 µM.

**Q.** With `Cc1ccc(Cl)c(Nc2ccccc2-c2n[nH]c(=S)o2)c1Cl` [Compound 4, 5-[2-(2,6-Dichloro-3-methyl-phenylamino)-phenyl]-3H-[1,3,4]oxadiazole-2-thione] as the compound, how does the IC50 read?
**A.** Its IC50 is 26.8 µM.

**Q.** Which IC50 does the source give for `Cc1ccc(Cl)c(Nc2ccccc2-c2n[nH]c(=S)[nH]2)c1Cl` [Compound 5, 5-[2-(2,6-Dichloro-3-methyl-phenylamino)-phenyl]-2,4-dihydro-[1,2,4]triazole-3-thione] here?
**A.** The IC50 was 9.9 µM.

**Q.** How did the IC50 turn out when `Cc1ccc(Cl)c(Nc2ccccc2C(=O)NNC(N)=S)c1Cl` [Compound 6, 2-[(2,6-dichloro-3-methylphenyl)amino]-,2-(aminothioxomethyl)hydrazide] was run?
**A.** The IC50 was 1.3 µM.

**Q.** With `Cc1ccc(Cl)c(Nc2ccccc2-c2n[nH]c(=S)n2C)c1Cl` [Compound 8, 5-[2-(2,6-Dichloro-3-methyl-phenylamino)-phenyl]-4-methyl-2,4-dihydro-[1,2,4]triazole-3-thione] as the compound, how does the IC50 read?
**A.** Its IC50 is 4.9 µM.

**Q.** Which IC50 does the source give for `CC(C)(C)c1cc(Nc2ccccc2-c2n[nH]c(=S)o2)cc(C(C)(C)C)c1O` [Compound 9, 5-[2-(3,5-Di-tert-butyl-4-hydroxy-phenylamino)-phenyl]-3H-[1,3,4]oxadiazole-2-thione] here?
**A.** The IC50 was 23.2 µM.

**Q.** `CC(O)c1cccc(Nc2ccccc2-c2n[nH]c(=S)o2)c1Cl` (stereo not drawn) [Compound 10, 5-{2-[2-Chloro-3-(1-hydroxy-ethyl)-phenylamino]-phenyl}-3H-[1,3,4]oxadiazole-2-thione] was tested. Which IC50 did it give?
**A.** Its IC50 is 18.9 µM.

**Q.** With `Cc1ccc(Cl)c(Nc2ccccc2C=C2SC(=S)NC2=O)c1Cl` [Compound 11, 5-[2-(2,6-Dichloro-3-methyl-phenylamino)-benzylidene]-2-thioxo-thiazolidin-4-one] as the compound, how does the IC50 read?
**A.** The IC50 was 1.3 µM.

**Q.** How did the IC50 turn out when `Cc1ccc(Cl)c(Nc2ccccc2-c2nnc(NC#N)s2)c1Cl` [Compound 12, Cyanamide, [5-[2-[(2,6-dichloro-3-methylphenyl)amino]phenyl]-1,3,4-thiadiazol-2-yl]-] was run?
**A.** Its IC50 is 6.4 µM.

**Q.** Which IC50 does the source give for `CCOC(=O)N(O)C(C)c1cccc(Nc2ccccc2-c2n[nH]c(=S)o2)c1Cl` (stereo not drawn) [Compound 13, Carbamic acid, [1-[2-chloro-3-[[2-(4,5-dihydro-5-thioxo-1,3,4-oxadiazol-2-yl)phenyl]amino]phenyl]ethyl]hydroxy-, ethyl ester] here?
**A.** Its IC50 is 5.3 µM.

**Q.** `Cc1ccc(Cl)c(Nc2ccccc2C=C2SC(=O)NC2=O)c1Cl` [Compound 15, 5-[2-(2,6-Dichloro-3-methyl-phenylamino)-benzylidene]-thiazolidine-2,4-dione] was tested. Which IC50 did it give?
**A.** The IC50 was 4.5 µM.

**Q.** `CNC(=O)N(O)C(C)c1cccc(Nc2ccccc2-c2n[nH]c(=S)o2)c1Cl` (stereo not drawn) [Compound 16, Urea, N-[1-[2-chloro-3-[[(4,5-dihydro-5-thioxo-1,3,4-oxadiazol-2-yl)phenyl]amino]phenyl]ethyl]-N-hydroxy-N'-methyl-] was tested. Which IC50 did it give?
**A.** Its IC50 is 1.4 µM.

**Q.** With `Cc1ccc(Cl)c(Nc2ccccc2/C=C2\SC(NC#N)=NC2=O)c1Cl` [Compound 17, Cyanamide, [5-[[2-[(2,6-dichloro-3-methylphenyl)amino]phenyl]methylene]-4,5-dihydro-4-oxo-2-thiazolyl]-, (Z)-] as the compound, how does the IC50 read?
**A.** The IC50 was 0.8 µM.

**Q.** For `Cc1ccc(Cl)c(Nc2ccccc2-c2nsc(NC#N)n2)c1Cl` [Compound 18, Cyanamide, [3-[2-[(2,6-dichloro-3-methylphenyi)amino]phenyl]-1,2,4-thiadiazol-5-yl]-], which IC50 is on record?
**A.** The IC50 was 0.3 µM.
